Experimental data reported in US12642270B2, “Substituted thiophene carboxamides, thiophene carboxylic acids and derivatives thereof” (Bayer Aktiengesellschaft, priority 2019, dated 2026).

Experiments:
[1] = system: Xanthomonas campestris pv. campestris; test: Example P: Xanthomonas campestris pv. campestris in vitro cell test, formula (II); assay type: cell-based; details: 20 ppm of active ingredient, 24 h incubation, read-out: efficacy (inhibition of bacteria growth; no direct activity)
Description: • Solvent: DMSO • Culture medium: LB broth medium (Luria Broth Miller) Sigma • Inoculum: bacteria suspension
Compounds were solubilized in DMSO and the solution used to prepare the required range of concentrations. The final concentration of DMSO used in the assay was ≤1%.
Inoculum was prepared from a pre-culture of bacteria grown in liquid medium and diluted to the desired optical density (OD).
Compounds were evaluated for their ability to inhibit bacteria growth in liquid culture assay. The compounds were added in the desired concentrations to culture medium containing the bacteria suspension. After 24 h of incubation, the efficacy of compounds was determined by spectrometric measurement of bacteria growth. Inhibition was determined by comparing the absorbance values in wells containing the compounds with the absorbance in control wells without active ingredients.

[2] = Log P by HPLC on reversed phase columns (EEC directive 79/831 Annex V.A8); assay type: physicochemical; details: for chromatographic logP: reversed phase HPLC columns
Procedure, shortened: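 Reversed-phase HPLC per EEC 79/831 Annex V.A8, LC-UV with 10→95% acetonitrile linear gradient; eluent [a] 0.1% formic acid (acidic), [b] 0.001 M ammonium acetate (neutral), [c] 0.1% phosphoric acid (acidic). Calibrated with C3–C16 straight-chain alkan-2-ones, linear interpolation of retention times; multiple values joined by "+".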

[3] = system: Colletotrichum lindemuthianum; test: Example O: Colletotrichum lindemuthianum in vitro cell test, formula (II); assay type: cell-based; details: 144 h, 6 days incubation, read-out: efficacy (inhibition of fungal growth; no direct activity); for inhibition at 10 ppm: 10 ppm of active ingredient; for inhibition at 20 ppm: 20 ppm of active ingredient
Description: • Solvent: DMSO • Culture medium: 14.6 g anhydrous D-glucose (VWR), 7.1 g Mycological Peptone (Oxoid), 1.4 g granulated Yeast Extract (Merck), QSP 1 liter • Inoculum: spores suspension Fungicides were solubilized in DMSO and the solution used to prepare the required range of concentrations. The final concentration of DMSO used in the assay was: ≤[…]1%. A spore suspension of C. lindemuthianum was prepared and diluted to the desired spore density. Fungicides were evaluated for their ability to inhibit spores germination and mycelium growth in liquid culture assay. The compounds were added in the desired concentration to the culture medium with spores. After 6 days incubation, fungi-toxicity of compounds was determined by spectrometric measurement of mycelium growth. Inhibition of fungal growth was determined by comparing the absorbance values in wells containing the fungicides with the absorbance in control wells without fungicides.

[4] = system: salicylate responsive promoter sequence of the PR1 (pathogenesis-related protein I) gene (AT2G14610); test: Example K: induction of defense gene expression in Arabidopsis thaliana (PR1 promoter-GFP reporter plants), formula (II); assay type: in vivo; details: 300 ppm, 3rd day after spraying, mock treated leaves = 1.00
Description: (§1) Arabidopsis thaliana reporter plants containing the coding sequence of a green fluorescent protein (GFP) linked to the salicylate responsive promoter sequence of the PR1 (pathogenesis-related protein I) gene (AT2G14610) were grown for five days and then sprayed with compounds. On the 3rd day after spraying, plant fluorescence was assessed with a MacroFluo instrument from Leica Microsystems (Wetzlar, Germany). Fluorescences were quantified with the Meta-Morph Microscopy Automation & Image Analysis Software (Molecular Devices, Sunnyvale, Calif., United States).
(§2) Background fluorescence in mock treated leaves was set as 1.00.

[5] = system: salicylate responsive promoter sequence of the PR1 (pathogenesis-related protein I) gene (AT2G14610); test: Example A: induction of defense gene expression in Arabidopsis thaliana (PR1 promoter-GFP reporter plants), formula (I); assay type: in vivo; details: 300 ppm, 3rd day after spraying, mock treated leaves = 1.00
Description: as §1, §2

[6] = method [a]: LC-UV, acidic range, 0.1% formic acid in water and acetonitrile
[7] = value in preparation example, method not marked

| SMILES | LogP [2, 6] | further results |
| --- | --- | --- |
| COC(=O)c1sc(Cl)c(C#N)c1C [II.028, methyl 5-chloro-4-cyano-3-methylthiophene-2-carboxylate] |  | inhibition at 20 ppm [1]: ≤ 30%; chromatographic logP [2, 6]: 2.98; chromatographic logP [2, 7]: 3.01; inhibition at 10 ppm [3]: ≤ 30%; inhibition at 20 ppm [3]: ≤ 30% |
| N#Cc1sc(C(=O)O)cc1Cl [II.034] | 1.33^[a] |  |
| O=C(O)c1cc(Br)c(F)s1 [II.035] | 1.94^[a] |  |
| O=C(O)c1cc(F)c(Cl)s1 [II.037] | 1.89^[a] |  |
| Cc1cc(C(=O)O)sc1Cl [II.038] | 2.16^[a] |  |
| O=C(O)c1cc(F)c(Br)s1 [II.039] | 1.02^[a] |  |
| O=C(O)c1cc(Cl)c(Br)s1 [II.040] | 2.23^[a] |  |
| N#Cc1cc(C(=O)O)sc1Cl [II.041] | 1.44^[a] |  |
| Cc1c(C(=O)O)sc(C#N)c1Br [II.042, 4-bromo-5-cyano-3-methylthiophene-2-carboxylic acid] |  | inhibition at 20 ppm [1]: ≤ 30%; chromatographic logP [2, 6]: 2.01; inhibition at 10 ppm [3]: ≤ 30%; inhibition at 20 ppm [3]: ≤ 30% |
| O=C(O)c1cc(Br)c(Cl)s1 [II.043] | 2.28^[a] |  |
| COC(=O)c1cc(Cl)c(C#N)s1 [II.046, methyl 4-chloro-5-cyanothiophene-2-carboxylate] |  | inhibition at 20 ppm [1]: ≤ 30%; chromatographic logP [2, 6]: 2.52; chromatographic logP [2, 7]: 2.52; inhibition at 10 ppm [3]: ≤ 30%; inhibition at 20 ppm [3]: ≤ 30% |
| COC(=O)c1cc(Cl)c(Br)s1 [II.047] | 3.29^[a] |  |
| CCOC(=O)c1cc(Br)c(Cl)s1 [II.048] | 4.21^[a] |  |
| COC(=O)c1cc(F)c(Br)s1 [II.049] | 3.04^[a] |  |
| CC(C)COC(=O)c1cc(Cl)c(Br)s1 [II.050] | 5.28^[a] |  |
| CCOC(=O)c1sc(Cl)c(Cl)c1C#N [II.053, ethyl 4,5-dichloro-3-cyanothiophene-2-carboxylate] |  | chromatographic logP [2, 6]: 3.54; chromatographic logP [2, 7]: 3.54 |
| COC(=O)c1sc(Br)c(Br)c1C(F)F [II.055, methyl 4,5-dibromo-3-(difluoromethyl)thiophene-2-carboxylate] |  | chromatographic logP [2, 6]: 3.81; chromatographic logP [2, 7]: 3.81 |
| CCOC(=O)c1sc(I)c(Cl)c1Cl [II.056] | 4.57^[a] |  |
| O=C(O)c1sc(I)c(Cl)c1Cl [II.057] | 3.01^[a] |  |
| CC(C)COC(=O)c1sc(Cl)c(Br)c1F [II.060] | 5.28^[a] |  |
| CCOC(=O)c1cc(Cl)c(F)s1 [II.062] | 3.63^[a] |  |
| CCOC(=O)c1sc(C)c(Cl)c1Cl [II.063] | 4.03^[a] |  |
| O=C(O)c1cc(Cl)c(F)s1 [II.064] | 2.16^[a] |  |

| SMILES | LogP [2, 6] | further results |
| --- | --- | --- |
| Cc1sc(C(=O)O)c(Cl)c1Cl [II.065] | 2.49^[a] |  |
| CCOC(=O)c1sc(F)c(Br)c1Cl [II.066] | 4.02^[a] |  |
| CCOC(=O)c1sc(Cl)c(Br)c1F [II.067] | 4.08^[a] |  |
| O=C(O)c1sc(Br)c(Cl)c1Br [II.070] | 2.41^[a] |  |
| CCOC(=O)c1cc(Cl)c(C#N)s1 [II.072] | 3.10^[a] |  |
| CCOC(=O)c1sc(Cl)c(C)c1Cl [II.073] | 4.59^[a] |  |
| Cc1c(Cl)sc(C(=O)O)c1Cl [II.074] | 2.76^[a] |  |
| O=C(O)c1sc(F)c(Br)c1Cl [II.076] | 2.19^[a] |  |
| O=C(O)c1sc(Br)c(C(F)F)c1Br [II.078] | 2.26^[a] |  |
| O=C(O)c1cc(Br)c(C(F)(F)F)s1 [II.081] | 2.46^[a] |  |
| CCOC(=O)c1cc(Br)c(C(F)(F)F)s1 [II.082] | 4.40^[a] |  |
| N#Cc1c(C(=O)O)sc(Cl)c1Br [II.083] | 1.70^[a] |  |
| COC(=O)c1sc(Cl)c(Cl)c1C#N [II.085, methyl 4,5-dichloro-3-cyanothiophene-2-carboxylate] |  | inhibition at 20 ppm [1]: ≤ 30%; chromatographic logP [2, 6]: 2.98; chromatographic logP [2, 7]: 2.98; inhibition at 10 ppm [3]: ≤ 30%; inhibition at 20 ppm [3]: ≤ 30% |
| N#Cc1sc(C(=O)O)c(Cl)c1Cl [II.088] | 1.51^[a] |  |
| CCOC(=O)c1sc(Cl)c(Br)c1Cl [II.089] | 4.62^[a] |  |
| CCOC(=O)c1cc(C#N)c(Cl)s1 [II.090] | 3.01^[a] |  |
| O=C(O)c1sc(F)c(Br)c1Br [II.094] | 2.26^[a] |  |
| N#Cc1c(Cl)sc(C(=O)O)c1Br [II.098] | 1.68^[a] |  |
| O=C(O)c1sc(C(F)F)c(Br)c1Br [II.099] | 2.51^[a] |  |
| N#Cc1cc(C(=O)O)sc1Br [II.100] | 1.48^[a] |  |
| Cc1c(C(=O)O)sc(F)c1Cl [II.101] | 2.45^[a] |  |
| N#Cc1c(C(=O)O)sc(Cl)c1Cl [II.103, 4,5-dichloro-3-cyanothiophene-2-carboxylic acid] |  | chromatographic logP [2, 6]: 1.61; chromatographic logP [2, 7]: 1.61 |
| O=C(O)c1ccccc1O [Salicylic acid] |  | relative fluorescence value [4]: 2.70; relative fluorescence value [5]: 2.70 |

Continued, in another order:

| LogP [2, 6] | SMILES | further results |
| --- | --- | --- |
| 5.03^[a] | CCOC(=O)c1sc(Br)c(I)c1C [II.031] |  |
| 5.00^[a] | CCOC(=O)c1sc(Cl)c(Br)c1C [II.032] |  |
| 1.41^[a] | N#Cc1sc(C(=O)O)cc1Br [II.036] |  |
| 1.73^[a] | N#Cc1c(Br)sc(C(=O)O)c1Br [II.044] |  |
| 2.44^[a] | COC(=O)c1cc(C#N)c(Cl)s1 [II.045] |  |
| 3.19^[a] | COC(=O)c1sc(C#N)c(Br)c1C [II.051] |  |
| 2.63^[a] | COC(=O)c1cc(Br)c(C#N)s1 [II.052] |  |
| 3.07^[a] | COC(=O)c1sc(C#N)c(Br)c1Br [II.054] |  |
| 3.49^[a] | COC(=O)c1sc(C)c(Cl)c1Cl [II.058] |  |
| 3.44^[a] | COC(=O)c1sc(F)c(Br)c1Cl [II.059] |  |
| 1.66^[a] | N#Cc1sc(C(=O)O)c(Br)c1Br [II.061] |  |
| 3.50^[a] | CCOC(=O)c1sc(C#N)c(Cl)c1Cl [II.068] |  |
| 3.26^[a] | COC(=O)c1sc(Br)c(Br)c1C#N [II.069] |  |
| 4.01^[a] | COC(=O)c1sc(Br)c(Cl)c1Br [II.071] |  |
| 3.54^[a] | COC(=O)c1sc(Br)c(C(F)F)c1Br [II.075] |  |
| 2.99^[a] | COC(=O)c1sc(Cl)c(Br)c1C#N [II.077] |  |
| 2.99^[a] | COC(=O)c1sc(C#N)c(Cl)c1Cl [II.079] |  |
| 3.02^[a] | COC(=O)c1sc(C#N)c(Br)c1Cl [II.080] |  |
| 3.15^[a] | COC(=O)c1sc(C)c(Br)c1F [II.084] |  |
| 3.56^[a] | COC(=O)c1sc(F)c(Br)c1Br [II.086] |  |
| 1.55^[a] | N#Cc1sc(C(=O)O)c(Cl)c1Br [II.087] |  |
| 3.44^[a] | CCOC(=O)c1sc(Br)c(C#N)c1Cl [II.091] |  |
| 3.56^[a] | CCOC(=O)c1sc(C#N)c(Cl)c1Br [II.092] |  |
| 3.46^[a] | CCOC(=O)c1sc(Cl)c(C#N)c1Br [II.093] |  |
| 2.92^[a] | COC(=O)c1sc(Cl)c(C#N)c1Br [II.095] |  |
| 3.04^[a] | COC(=O)c1sc(C#N)c(Cl)c1Br [II.096] |  |
| 1.64^[a] | N#Cc1sc(C(=O)O)c(Br)c1Cl [II.097] |  |
| 2.53^[a] | Cc1c(C(=O)O)sc(F)c1Br [II.102] |  |
| 1.71^[a] | N#Cc1c(C(=O)O)sc(Br)c1Br [II.104] |  |
